Measured values as given in patent US20120027720A1, “PEPTIDE CONJUGATES” (priority 2008, published 2012).
Where a SMILES comes first, the peptide text is derived from it. Where no end group is shown, it is not given here. [ ]: non-standard residue; d: D form. Met(O2) = CS(=O)(=O)CC[C@H](N)C(=O)O; 2Pal = N[C@@H](Cc1ccccn1)C(=O)O; AllylGly = C=CC[C@H](N)C(=O)O; Tle = CC(C)(C)[C@H](N)C(=O)O

Experiments:
Format in all cases: cell-based
IEC6 cells = experiment: Real-Time Cell Electronic Sensing (RT-CES, ACEA) assay of cell morphology change; design: key: + indicates an enhancement of the permeability of the tight junctions were observed; − indicates no enhancement of permeability was observed; details: peptide at 5 mg/mL
From the text: Agonists of tight junctions can be identified by their ability to induce changes in morphology of cells in a monolayer of cells that comprise tight junctions. Such changes in the morphology of IEC6 cells may be measured using a Real-Time Cell Electronic Sensing protocol as described below.
Tight junction agonists can be identified using the following method an used in peptide conjugates of the invention:
Materials: cells: IEC6 passage 30-50, medium: DMEM 10% no calcium no magnesium, foetal bovine serum 0.1 unit per ml bovine insulin, buffers: phosphate buffered saline (PBS) no calcium no magnesium, trypsin: 0.25% porcine trypsin in HBSS no calcium no magnesium, flasks: 100×20 mm Tissue culture dish Falcon, plates: 16× E-Plate, machine: RT-CES™ 16× system (ACEA Biosciences, Inc., San Diego, Calif.)
Wash a 75 cm^2 flask of confluent IEC6 cells twice with 25 ml of PBS.
Add 2.5 ml of trypsin to the flask and place back in the incubator at 37° C.
Wash cells from the surface of the flask with 10 ml of serum containing media to quench the trypsin.
Pellet the cells by centrifugation at 1500 rpm for 5 minutes aspirate the media.
Resuspend the cell pellet in 10 ml of serum free media and centrifuge at 1500 rpm for 5 minutes aspirate the media and repeat for a total of 5 washes.
Take 100 μl of cells and mix with 100 μl of trypan blue.
Count the cells four times and use the average cell concentration.
Dilute the cells to 1×10^6 per ml in serum free media.
Add 100 μl of serum free media to each well of the ACEA plates to be used.
Insert the ACEA plate and press scan.
Run step 1 of the program to measure background.
Add 50 μl of cells to each well of the ACEA plate tap each slide of the plate 10 times and place the cells on the bench for 15 minutes to allow the cells to settle.
Insert the ACEA plate and run the scan step to check connections and run step 2-1 and 2-2 overnight.
Step 2-1 sample every 2 minutes 30 times.
Step 2-2 sample every 15 minutes 100 times.
The cell indices should be between 6-10 after the overnight run and should have reached a plateau.
Remove 100 μl of media carefully from each well.
Make up the compounds to be tested so that 50 μl contains 2× the desired final concentration.
Add 50 μl of compounds to the designated wells.
Scan the plate to check connections.
Step 3-1 sample every 2 minutes 30 times.
Step 3-2 sample every 15 minutes 100 times.

CaCo2 monolayers [1] = experiment: Epithelial flux of Lucifer Yellow through cell monolayer; design: key to Enhanced LY permeability: + indicates an enhancement of the permeability of the tight junctions were observed; − indicates no enhancement of permeability was observed; details: for Enhanced LY permeability: Lucifer Yellow flux, Caco-2 monolayer
Outline: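 Caco-2 cells (passage 40-60) grown 21-28 days on Transwell filters, equilibrated 30 min at 37 °C in HBSS-HEPES pH 7.4; Lucifer Yellow with test compound applied apically, n=3 filters. Basolateral samples at 60, 120, 180 min read by fluorescence at 485/535 nm against standard curve; TEER also measured.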

CaCo2 monolayers [2] = experiment: Trans Epithelial Electric Resistance (TEER) across cell monolayer; design: key to Reduced TEER: + indicates an enhancement of the permeability of the tight junctions were observed; − indicates no enhancement of permeability was observed; details: for Reduced TEER: Caco-2 monolayer
Outline: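 Caco-2 cells, passage 40-60, grown 21-28 days on Transwell filters, equilibrated 30 min at 37° C in MHBSS pH 7.4. Test compound with Lucifer Yellow applied apically (n=3), incubated at 37° C with 50 RPM shaking; TEER measured at baseline and at 30, 60, 120 and 180 min.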

Molecule	ACEA 5 mg/mL (IEC6 cells)	Enhanced LY permeability (CaCo2 monolayers [1])	Reduced TEER (CaCo2 monolayers [2])	enhancement of Lucifer Yellow permeability through CaCo2 monolayers (CaCo2 monolayers [1]; compared to vehicle alone)	decrease in TEER across CaCo2 monolayers (CaCo2 monolayers [2]; compared to vehicle alone)
15 (FCIG[dR]L; also: peptide conjugate) [compound 15]	+	−	−		
6 (FCIGAL; not fully specified; printed as Phe-Cys-Ile-Gly-Ala-Leu) [compound 6]	+	−	−		
8 (CIGRL; not fully specified; printed as Cys-Ile-Gly-Arg-Leu) [compound 8]	−	−	−		
24 ([dL]RGICF; not fully specified; printed as D-Leu-Arg-Gly-Ile-Cys-Phe) [compound 24]	+	−	−		
22 (L[dR]G[dI][dC][dF]; not fully specified; printed as Leu-D-Arg-Gly-D-Ile-D-Cys-D-Phe) [compound 22]	−	+	+		
10 (FCIGR; also: peptide conjugate) [compound 10]	+	+	+		
25 (L[dR]GICF; not fully specified; printed as Leu-D-Arg-Gly-Ile-Cys-Phe) [compound 25]	+	−	−		
32 ([dF][dC]IG[dR][dL]; not fully specified; printed as D-Phe-D-Cys-Ile-Gly-D-Arg-D-Leu) [compound 32]	−	+	+		
7 (FCIGRA; not fully specified; printed as Phe-Cys-Ile-Gly-Arg-Ala) [compound 7]	+	+	+		
29 ([dF][dC][dI]G[dR][dL]; not fully specified; printed as D-Phe-D-Cys-D-Ile-Gly-D-Arg-D-Leu) [compound 29]	−	+	+		
19 ([dL][dR]G[dI]C[dF]; not fully specified; printed as D-Leu-D-Arg-Gly-D-Ile-Cys-D-Phe) [compound 19]	+	+	+		
33 ([dF]C[dI]G[dR][dL]; not fully specified; printed as D-Phe-Cys-D-Ile-Gly-D-Arg-D-Leu) [compound 33]	+	−	−		
14 (FC[dI]GRL; also: peptide conjugate) [compound 14]	−	+	+		
18 ([dL][dR]G[dI][dC]F; not fully specified; printed as D-Leu-D-Arg-Gly-D-Ile-D-Cys-Phe) [compound 18]	+	+	+		
211 (F[AllylGly]AGRL-NH2; N-terminus assumed; SMILES C=CC[C@H](NC(=O)[C@@H](N)Cc1ccccc1)C(=O)N[C@@H](C)C(=O)NCC(=O)N[C@@H](CCCNC(=N)N)C(=O)N[C@@H](CC(C)C)C(N)=O) [compound 211]		+	+		
163 (F[2Pal]IGRL; also: peptide conjugate, Xaa: 'may be' L-beta-(2-pyridyl)-alanine) [compound 163]		−	−		

Molecule	ACEA 5 mg/mL (IEC6 cells)	Enhanced LY permeability (CaCo2 monolayers [1])	Reduced TEER (CaCo2 monolayers [2])	enhancement of Lucifer Yellow permeability through CaCo2 monolayers (CaCo2 monolayers [1]; compared to vehicle alone)	decrease in TEER across CaCo2 monolayers (CaCo2 monolayers [2]; compared to vehicle alone)
133 (FYIGRL; also: peptide conjugate) [compound 133]		−	−		
186 (M[AllylGly]IGRL-NH2; N-terminus assumed; SMILES C=CC[C@H](NC(=O)[C@@H](N)CCSC)C(=O)N[C@H](C(=O)NCC(=O)N[C@@H](CCCNC(=N)N)C(=O)N[C@@H](CC(C)C)C(N)=O)[C@@H](C)CC) [compound 186]		−	−		
128 (FGIGRL; also: peptide conjugate) [compound 128]		+	−		
37 ([dL][dR]GICF; not fully specified; printed as D-Leu-D-Arg-Gly-Ile-Cys-Phe) [compound 37]		−	−		
144 (H-F[Met(O2)]IGRL-OH; not fully specified; also: peptide conjugate, Xaa: 'may be' L-methionine-sulfone) [compound 144]		−	−		
CC[C@H](C)[C@H](NC(=O)[C@H](CS)NC(=O)[C@@H](N)Cc1ccccc1)C(=O)NCC(=O)N[C@@H](CCCNC(=N)N)C(=O)N[C@@H](CC(C)C)C(=O)O [SEQ ID NO: 1, Phe-Cys-Ile-Gly-Arg-Leu] (H-FCIGRL-OH; N-terminus and C-terminus assumed)				51 fold	16 fold
97 (H-FCIGR[Tle]-OH; SMILES CC[C@H](C)[C@H](NC(=O)[C@H](CS)NC(=O)[C@@H](N)Cc1ccccc1)C(=O)NCC(=O)N[C@@H](CCCNC(=N)N)C(=O)N[C@H](C(=O)O)C(C)(C)C) [compound 97]		+	+		
206 (F[AllylGly]LGRL-NH2; N-terminus assumed; SMILES C=CC[C@H](NC(=O)[C@@H](N)Cc1ccccc1)C(=O)N[C@@H](CC(C)C)C(=O)NCC(=O)N[C@@H](CCCNC(=N)N)C(=O)N[C@@H](CC(C)C)C(N)=O) [compound 206]		+	+		
190 (T[AllylGly]IGRL-NH2; N-terminus assumed; SMILES C=CC[C@H](NC(=O)[C@@H](N)[C@@H](C)O)C(=O)N[C@H](C(=O)NCC(=O)N[C@@H](CCCNC(=N)N)C(=O)N[C@@H](CC(C)C)C(N)=O)[C@@H](C)CC) [compound 190]		−	−		
35 (F[dC]IG[dR]L; not fully specified; printed as Phe-D-Cys-Ile-Gly-D-Arg-Leu) [compound 35]		+	+		
155 (F[dV]IGRL-OH; also: peptide conjugate) [compound 155]		−	−		
20 ([dL][dR]GI[dC][dF]; not fully specified; printed as D-Leu-D-Arg-Gly-Ile-D-Cys-D-Phe) [compound 20]		+	+		
187 (Q[AllylGly]IGRL-NH2; N-terminus assumed; SMILES C=CC[C@H](NC(=O)[C@@H](N)CCC(N)=O)C(=O)N[C@H](C(=O)NCC(=O)N[C@@H](CCCNC(=N)N)C(=O)N[C@@H](CC(C)C)C(N)=O)[C@@H](C)CC) [compound 187]		−	−		
9 (IGRL; not fully specified; printed as Ile-Gly-Arg-Leu) [compound 9]		−	−		
11 (FCIG; also: peptide conjugate) [compound 11]	+		−		
